Data as given in paper PMC9941179, “Preparation and activity evaluation of angiotensin-I converting enzyme inhibitory peptides from protein hydrolysate of mulberry leaf” (Frontiers in Nutrition, 2023).
Read-outs that look alike come from different tables or passages of the source. Where no end group is shown, it is not given here.

Assays:
ACE [1] = biological target: T1, ACE (Homo sapiens, UniProt P12821); test: ACE inhibitory activity of synthetic peptides; assay type: biochemical
T1 construct: purchased Tong Ren Chemical Co., Ltd. (Institute of Tongren Chemistry, Japan) ACE Kit-WST
Description: The ACE inhibitory activity was determined by ACE Kit-WST (Institute of Tongren Chemistry, Japan). Taking ultra-pure water as blank control, the inhibitory activity of ACE was calculated.
Pinhibitoryrate%=ABlack1-ASample/ABlack1-ABlack2×100%
Each experimental procedure was performed three times, and data were expressed as the mean ± standard deviation. Statistical analyses were conducted by one-way analysis of variance using IBM SPSS 20 (SPSS Inc., Chicago, USA). Duncan’s test was applied to determine the significance of multiple groups. The P-value <0.05 was considered statistically significant.
All the peptides were commercially synthesized and their ACE activity was determined (Figure 8).

ACE [2] = settings: 0.05 mg/L; peptide from broccoli; ref Zhang et al. ([21]); cited from earlier work
Source text: It is of high research value to develop efficient antihypertensive products around botanical angiotensin- I converting enzyme (ACE) inhibitory peptides ([11]). Hypertension is a standard chronic disease and the most critical risk factor for cardio-cerebrovascular disease ([12]). The pathogenesis of hypertension is associated with the renin tensin system (Renin-Angiotensin System, RAS) ([13], [14]). RAS contains two key enzymes: hypertension proteinase (Renin) and ACE ([15]). Therefore, inhibiting the enzyme activity of Renin and ACE is one of the treatments for hypertension ([16], [17]). ACE b ...

[3] = synthetic peptide, IC50 used as inhibitor concentration in kinetics, read-out: IC50 (peptide concentration in Table 7) (converted)

T1 sequence (P12821 30-1306, species assumed): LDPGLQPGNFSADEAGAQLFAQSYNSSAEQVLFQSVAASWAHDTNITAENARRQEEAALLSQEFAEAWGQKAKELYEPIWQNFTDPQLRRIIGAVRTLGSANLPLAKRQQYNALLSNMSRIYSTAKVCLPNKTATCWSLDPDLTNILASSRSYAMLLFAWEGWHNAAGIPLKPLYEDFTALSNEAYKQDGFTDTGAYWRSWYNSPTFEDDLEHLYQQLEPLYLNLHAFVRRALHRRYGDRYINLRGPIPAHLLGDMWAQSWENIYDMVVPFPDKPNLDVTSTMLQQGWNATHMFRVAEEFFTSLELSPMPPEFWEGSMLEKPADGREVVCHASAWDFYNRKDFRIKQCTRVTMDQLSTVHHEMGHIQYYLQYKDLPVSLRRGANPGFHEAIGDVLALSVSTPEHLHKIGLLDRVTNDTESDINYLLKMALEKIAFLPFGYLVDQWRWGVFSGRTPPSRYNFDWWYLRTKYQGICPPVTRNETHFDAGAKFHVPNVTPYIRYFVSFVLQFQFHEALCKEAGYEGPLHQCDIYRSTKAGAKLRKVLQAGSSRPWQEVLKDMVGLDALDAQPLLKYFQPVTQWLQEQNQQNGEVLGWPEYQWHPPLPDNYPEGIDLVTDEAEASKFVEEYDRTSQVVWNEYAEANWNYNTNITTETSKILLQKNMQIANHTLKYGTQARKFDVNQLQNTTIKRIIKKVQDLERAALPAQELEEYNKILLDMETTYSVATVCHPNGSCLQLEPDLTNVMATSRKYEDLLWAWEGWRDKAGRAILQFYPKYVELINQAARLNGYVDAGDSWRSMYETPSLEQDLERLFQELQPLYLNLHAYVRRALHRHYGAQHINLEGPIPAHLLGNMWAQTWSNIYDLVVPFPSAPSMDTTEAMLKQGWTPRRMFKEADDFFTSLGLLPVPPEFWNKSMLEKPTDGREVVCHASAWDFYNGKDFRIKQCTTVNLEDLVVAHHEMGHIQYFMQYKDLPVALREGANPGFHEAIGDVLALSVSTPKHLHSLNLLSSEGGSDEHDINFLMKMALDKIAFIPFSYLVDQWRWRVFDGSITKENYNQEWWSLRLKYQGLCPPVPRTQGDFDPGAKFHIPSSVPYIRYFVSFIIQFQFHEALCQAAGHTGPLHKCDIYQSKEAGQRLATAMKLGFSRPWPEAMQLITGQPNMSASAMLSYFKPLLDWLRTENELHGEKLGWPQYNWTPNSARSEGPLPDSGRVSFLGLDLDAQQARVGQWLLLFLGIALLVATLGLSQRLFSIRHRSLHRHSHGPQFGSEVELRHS

Row | Substance | IC50 (ACE [1]; [3]) [µM] | also measured
1 | ERFNVE [ERFNVE] | 3340 | 
2 | MELVLK [MELVLK] |  | IC50 (ACE [1]; chemosynthetic peptide, purity greater than 95%, read-out: IC50 (converted)): 2600 µM
3 | Lys - Ser - Val - Leu - Leu - Lys - Phe [peptide from broccoli digest, literature] |  | ACE inhibition rate (ACE [2]): 42.86%

Continued, in another order:

Row | IC50 (ACE [1]; [3]) [µM] | Substance | also measured
4 | 1400 | TELVLK [TELVLK] | 
5 | 931 | FDDKLD [FDDKLD] | 
